Results from patent US20150133411A1, “COMPOUNDS WITH TRPV4 ACTIVITY, COMPOSITIONS AND ASSOCIATED METHODS THEREOF” (The University of Utah Research Foundation, priority 2012, published 2015).

Key:
MB model of glaucoma = assay: IOP time course after single eye drop in MB model of glaucoma; assay type: in vivo, mouse; conditions: eye drop
Experimental: Specifically, microbeads (MBs) were injected into the anterior chamber of a mouse eye as described in Example 2 with PBS-injected eyes used as controls. Compound 1 (10 mg/kg body weight) (or PBS vehicle) was injected intraperitoneally (IP). […] IOP was measured in mice between 10:00 AM and 1:00 PM with the TonoLab rebound tonometer (Colonial Medical Supply, Franconia, NH/Tyolat, Helsinki, Finland). Mice were sedated with IP injection of Avertin with final amount calculated by weight (e.g., 0.5 ml for 21-24 g animals). Animals were placed on a jack stand platform and the tonolab was clamped on a ring stand and centered onto the mid-cornea. During measurements animal were neither restrained nor touched. Each eye was measured twenty consecutive times, the highest and lowest values were discarded and the values were averaged.
FIG. 9 illustrates the short-term effects of a single dose of Compound 1 (eye drop) in the MB model of glaucoma. IOP was measured as described in Example 3 at the indicated time points after receiving a drop of Compound 1. Compound 1 reduced IOP beginning at 1 hour after dosing and continued through 6 hours after dosing.
FIG. 10 illustrates a time course of Compounds 1, 2, 5 and Compound 2-HCl as well as a positive control compound, timolol, with regard to inhibition of IOP. The experiment was conducted as described in Example 9. Each of the TRPV4 antagonists reduced IOP with a similar time course. Specifically, Compounds 1, 2, 5 and Compound 2-HCl reduced IOP for at least 6 hours after dosing.
FIG. 11 illustrates a time course of Compound 2-HCl activity. The experiment was conducted as described in Example 9. […] 2
FIG. 12 illustrates a comparison of the time course of Compound 2-HCl and Compound 5. The experiment was conducted as described in Example 9.

[1] = test system: retinal neurons (RGCs) and glia (Müller cells); assay: Hypotonic stimuli: cell swelling (change in cell area) and [Ca++]i; assay type: cell-based; conditions: hypotonic stimuli, 300 mOsm to 190 mOsm
Excerpt: FIG. 18A illustrates the effect of hypotonic stimuli on cell swelling as measured by change in cell area. Hypotonic stimuli were generated by replacing extracellular sodium levels to lower osmolarity from 300 mOsm to 190 mOsm.

TRPV4 [2] = biological target: T1, TRPV4 (Homo sapiens, UniProt Q9HBA0); assay: Fura-2 calcium imaging of human trabecular meshwork (TM) cells; assay type: cell-based; conditions: bath application 100 nM
T1 construct: endogenous in cells; host or cells: primary human trabecular meshwork cells from trabeculectomy tissue
Experimental: Pieces of tissue were isolated from a trabeculectomy. Trabecular meshwork cells (TM) were kept in cold L15 medium and then loaded with Fura-2 (10 μm) for 1 hour. Fibroblast-shaped cells were imaged from a TM chunk (˜500 μm×500 μm) with a 40× water immersion objective. The sampling rate was at 6 second intervals. Krebs Ringer Bicarbonate Recording buffer (7.4, 284 mOsm) was prepared as reported by Anthony et al., 1998, IOVS; Prostaglandin F2α receptors in the human trabecular meshwork.
Calcium imaging was performed on TM cells isolated from human patients. In brief, dissociated human TM cells embedded within the tissue were dissociated and plated on concanavalin A-coated (0.2 mg/ml; Sigma) coverslips, loaded with fura-2 AM ([…]; Invitrogen Life Technologies) for 15 min-1 hour and washed for 10 min in dye-free L-15 medium. […] Fluorescence emission was high-pass filtered at 510 nm and captured with cooled digital CCD cameras (HQ2, Photometrics). […] Fluorescence imaging was performed on regions of interest (ROIs) encompassing the TM cell somata, typically at 3×3 binning. Background fluorescence was measured in similarly sized ROIs in neighboring areas devoid of cells. After sequential image acquisition (0.167-0.5 Hz) of cell fluorescence at 340/380 nm, the background was subtracted. […]

retinal ganglion cells [3] = assay: In vivo intraocular injection of GSK, NeuN+ RGC count; conditions: intraocular injection 100-300 nM, retinas after 48 hours
Experimental: In this experiment, GSK (100-300 nM) was injected intraocularly with a Hamilton syringe. Retinas were isolated after 48 hours, fixed and labeled with the RGC marker antibody NeuN. NeuN-immunopositive somata in the ganglion cell layer, shown in the panel on the right, were counted. The bar graph represents quantification of NeuN^+ cells in the indicated experimental groups.

retinal ganglion cells [4] = assay: TUNEL assay of apoptotic cell death in retinas; assay type: cell-based
Experimental: Terminal deoxynucleotidyl transferase-mediated dUTP-biotin nick end labeling (TUNEL) is a common method for detecting fragmentation that results from apoptotic signaling cascades. Retinas were embedded, cryosectioned, and processed for the TUNEL assay following the protocol by Gavrieli et al. (1992). After 30 min. rehydration in 70% ethanol, 2×5 min. rinses in PBS and 1% Triton-X in 1% citrate buffer (pH 7.3), the slides were subjected to a final rinse in PBS. Slides were then incubated for 30 min. in the reaction buffer (30 mM Trizma-HCl, 140 mM cacodylate, 1.0 mM CaCl2, 0.2% Triton X-100, pH 7.2). Positive controls were treated with DNAse I (Roche Diagnostics; Branford, Conn.; 10 U/ml) in the reaction buffer. Next, slides were treated for 1 hour with 0.03 units/μl terminal transferase and 4 μM biotin-16-dUTP (Roche Diagnostics). The reaction was terminated in 30 mM Na+ citrate, 300 mM NaCl and 0.2% Triton X-100 in PBS (5 min.) and rinsed in PBS (2×5 min), exposed to 1% bovine serum albumin in PBS for 20 min and rinsed. Apoptotic cells were visualized with a confocal microscope (Zeiss LSM510) and categorized by size. […] This was blocked by RuR and by the TRPV4 antagonist Compound 1.

TRPV4 [5] = biological target: T2, TRPV4 (Mus musculus, UniProt Q9EPK8); assay: GSK-evoked [Ca++]i in retinal Müller glial cells; assay type: cell-based; set-up: endogenous in cells; host or cells: retinal Müller glial cells; conditions: retinal Müller glial cells; agonist alone
TRPV4 [6] = biological target: T2, TRPV4; assay: AGB cation influx into retinal cells (anti-AGB antibody); assay type: cell-based; set-up: these two cell types express TRPV4 channels in the mouse retina; from tissue; host or cells: mouse retina (retinal ganglion cells and Müller glial cells); conditions: mouse retina; agonist alone
Experimental: FIG. 16 illustrates the effect of the TRPV4 agonist GSK on cation influx into mouse retinal cells of the mouse retina. The influx was determined using the anti-AGB antibody, as described by Marc R E (J Comp Neurol 407(1): 47-64, 1999). AGB is a membrane permeant cation that can flow through most known cation channels. Using an anti-AGB antibody, it can be determined where the cation flux occurs and, therefore, which cells are activated.

Müller cells = assay: Arachidonic acid-induced [Ca2+]i in Müller cells; assay type: cell-based; conditions: 10 μM
Experimental: This response is blocked by Compound 1 (1 μM).

T2 sequence (Q9EPK8 whole entry): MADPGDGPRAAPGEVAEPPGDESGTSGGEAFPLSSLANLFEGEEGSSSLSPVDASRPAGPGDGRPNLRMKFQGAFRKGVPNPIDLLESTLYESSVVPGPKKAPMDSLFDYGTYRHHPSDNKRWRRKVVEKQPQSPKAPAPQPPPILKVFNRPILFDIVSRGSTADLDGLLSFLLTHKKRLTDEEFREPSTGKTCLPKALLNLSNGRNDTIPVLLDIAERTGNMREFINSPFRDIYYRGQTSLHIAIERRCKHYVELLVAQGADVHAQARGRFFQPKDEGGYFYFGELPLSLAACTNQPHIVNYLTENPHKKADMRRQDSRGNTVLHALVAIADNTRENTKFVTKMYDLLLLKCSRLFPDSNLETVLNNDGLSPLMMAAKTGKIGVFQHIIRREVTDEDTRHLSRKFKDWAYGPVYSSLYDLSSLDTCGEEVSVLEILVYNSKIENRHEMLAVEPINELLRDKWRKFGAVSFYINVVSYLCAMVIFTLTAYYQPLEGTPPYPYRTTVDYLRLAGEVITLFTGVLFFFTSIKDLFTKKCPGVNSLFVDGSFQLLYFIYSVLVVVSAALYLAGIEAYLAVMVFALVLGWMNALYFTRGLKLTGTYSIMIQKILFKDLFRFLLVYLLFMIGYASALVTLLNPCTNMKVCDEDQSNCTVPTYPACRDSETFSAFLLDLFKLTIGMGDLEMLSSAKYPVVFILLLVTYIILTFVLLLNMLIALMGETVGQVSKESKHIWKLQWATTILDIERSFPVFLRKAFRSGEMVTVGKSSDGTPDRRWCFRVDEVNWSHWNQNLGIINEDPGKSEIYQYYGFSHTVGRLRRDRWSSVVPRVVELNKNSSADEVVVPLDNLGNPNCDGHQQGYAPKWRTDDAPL
T1 sequence (Q9HBA0 whole entry): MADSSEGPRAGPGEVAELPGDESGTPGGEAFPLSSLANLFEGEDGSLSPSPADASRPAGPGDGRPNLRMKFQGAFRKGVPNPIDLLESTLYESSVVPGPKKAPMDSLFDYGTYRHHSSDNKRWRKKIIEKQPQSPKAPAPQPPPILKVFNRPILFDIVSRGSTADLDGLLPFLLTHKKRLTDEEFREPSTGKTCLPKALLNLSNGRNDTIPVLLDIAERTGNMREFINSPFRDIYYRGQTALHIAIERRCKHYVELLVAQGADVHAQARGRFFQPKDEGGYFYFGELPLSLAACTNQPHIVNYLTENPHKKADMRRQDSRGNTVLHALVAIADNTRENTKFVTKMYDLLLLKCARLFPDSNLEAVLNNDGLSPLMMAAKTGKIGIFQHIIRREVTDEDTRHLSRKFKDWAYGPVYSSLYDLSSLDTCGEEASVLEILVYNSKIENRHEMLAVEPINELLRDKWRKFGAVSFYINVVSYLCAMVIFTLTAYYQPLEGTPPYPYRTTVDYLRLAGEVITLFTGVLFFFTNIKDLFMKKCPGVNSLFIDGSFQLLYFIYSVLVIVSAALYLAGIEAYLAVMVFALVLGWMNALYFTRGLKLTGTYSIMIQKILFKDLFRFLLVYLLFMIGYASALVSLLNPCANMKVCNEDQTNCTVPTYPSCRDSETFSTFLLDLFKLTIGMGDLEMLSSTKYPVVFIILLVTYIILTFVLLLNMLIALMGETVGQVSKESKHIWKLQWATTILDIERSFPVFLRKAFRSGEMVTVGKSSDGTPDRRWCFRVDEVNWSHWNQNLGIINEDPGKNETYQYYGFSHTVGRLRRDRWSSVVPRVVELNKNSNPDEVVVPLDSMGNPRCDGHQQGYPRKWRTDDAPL

In the case of `Cc1c(C(=O)Nc2cccc(C(=O)OC(C)C)c2)cc(-c2ccccc2)n1CCCN1CCOCC1.Cl` [Compound 2-HCl, iso-propyl 3-(2-methyl-1-(3-morpholinopropyl)-5-phenyl-1H-pyrrole-3-carboxamido)benzoate hydrochloride], the “time of maximal inhibition of IOP” value (MB model of glaucoma; after dosing) is reported as 6 h.
For `CC(=O)OCOC(=O)CN(CC(=O)OCOC(C)=O)c1ccccc1OCCOc1ccccc1N(CC(=O)OCOC(C)=O)CC(=O)OCOC(C)=O` [BAPTA-AM, reference compound], the “cell swelling (change in cell area)” value [1] was “significantly reduced”.
`CC(C)C[C@H](NC(=O)c1cc2ccccc2s1)C(=O)N1CCN(C(=O)[C@H](CO)NS(=O)(=O)c2ccc(Cl)cc2Cl)CC1` [GSK1016790A, reference compound] was tested, and the “340/380 fluorescence ratio (intracellular calcium [Ca++]i)” value (TRPV4 [2]) was “increased 340/380 fluorescence ratio”, the “number of retinal ganglion cells (NeuN+ somata)” value (retinal ganglion cells [3]) was “substantially reduces the number of retinal ganglion cells” and the “death of retinal ganglion cells (TUNEL staining)” value (retinal ganglion cells [4]; 100 nM, agonist alone) was “induced death of retinal ganglion cells”. The “intracellular calcium concentration [Ca++]i” value (TRPV4 [5]) was “evokes sustained increases” and the “number of AGB+ cells (cation influx)” value (TRPV4 [6]) was “increased the number of AGB^+ retinal ganglion cells and Müller glial cells”.
In the case of `N.N.N.N.N.N.N.N.N.N.N.N.N.N.[Cl-].[Cl-].[Cl-].[Cl-].[Cl-].[Cl-].[O-2].[O-2].[Ru+3].[Ru+3].[Ru+4]` [Ruthenium Red], the “apoptotic cell death induced by hypotonic swelling (TUNEL)” value (retinal ganglion cells [4]; 190 mOsm saline, Compound 1 1 uM, RuR 10 μM) is reported as “block apoptotic cell death” and the “apoptotic cell death induced by TRPV4 agonist GSK (TUNEL)” value (retinal ganglion cells [4]; GSK 100 nM, Compound 1 1 uM, RuR 10 μM) is reported as “block apoptotic cell death”.
In the case of `CC(C)(C)NC[C@H](O)COc1nsnc1N1CCOCC1` [timolol, reference compound], the “dose-response curve for inhibition of IOP relative to TRPV4 antagonists” value (MB model of glaucoma; positive control) is reported as “left-shifted dose-response curve”.
In the case of `CCCCC/C=C\C/C=C\C/C=C\C/C=C\CCCC(=O)O` [arachidonic acid, reference compound], the “[Ca2+]i response” value (Müller cells) is reported as “increase in [Ca2+]i”.
